For 2 molecules, IC50 results are on record in ChEMBL document CHEMBL6153085, “Discovery of N-(1,2,4-Thiadiazol-5-yl)benzo[b]oxepine-4-carboxamide Derivatives as Novel Antiresistance Androgen Receptor Antagonists” (J Med Chem, 2025).

One data set addresses T1, Androgen receptor (Homo sapiens, UniProt P10275).
T1 sequence (P10275 whole entry): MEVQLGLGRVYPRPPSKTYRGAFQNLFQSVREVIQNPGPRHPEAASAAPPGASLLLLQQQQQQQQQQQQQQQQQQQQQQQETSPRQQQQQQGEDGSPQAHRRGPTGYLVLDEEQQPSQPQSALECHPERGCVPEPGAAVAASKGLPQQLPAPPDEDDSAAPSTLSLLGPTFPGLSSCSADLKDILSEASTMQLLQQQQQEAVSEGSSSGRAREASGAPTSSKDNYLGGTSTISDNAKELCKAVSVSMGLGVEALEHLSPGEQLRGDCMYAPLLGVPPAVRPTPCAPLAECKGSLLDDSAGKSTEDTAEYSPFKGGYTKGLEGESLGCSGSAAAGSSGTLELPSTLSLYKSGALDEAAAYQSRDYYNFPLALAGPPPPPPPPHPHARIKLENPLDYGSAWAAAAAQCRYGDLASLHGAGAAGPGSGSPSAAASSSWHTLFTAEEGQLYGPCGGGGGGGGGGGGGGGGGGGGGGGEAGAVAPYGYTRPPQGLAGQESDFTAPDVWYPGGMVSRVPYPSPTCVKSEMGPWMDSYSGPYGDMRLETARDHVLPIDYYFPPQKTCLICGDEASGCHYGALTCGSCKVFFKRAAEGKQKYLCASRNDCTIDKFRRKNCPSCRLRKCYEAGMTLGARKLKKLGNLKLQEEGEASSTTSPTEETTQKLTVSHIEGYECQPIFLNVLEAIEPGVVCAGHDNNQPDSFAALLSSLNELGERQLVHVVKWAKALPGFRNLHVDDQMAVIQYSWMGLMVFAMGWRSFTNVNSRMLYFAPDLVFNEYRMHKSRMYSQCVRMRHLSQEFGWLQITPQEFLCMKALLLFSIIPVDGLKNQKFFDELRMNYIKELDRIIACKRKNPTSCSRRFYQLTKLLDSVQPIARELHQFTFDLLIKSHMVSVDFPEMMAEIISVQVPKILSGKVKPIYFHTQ
Nature of the data set: Antagonist activity at Androgen receptor in human LNCaP cells expressing ARR2PB-eGFP incubated for 3 days by fluorescence based assay.

The next data set concerns LNCaP. Description: Antiproliferative activity against human LNCaP cells assessed as inhibition of cell proliferation incubated for 3 days by MTT assay. The settings on record: 72 h.
The nature of data set [1]: Antiproliferative activity against mouse 3T3 cells incubated for 3 days by MTT assay. The settings on record: NIH3T3 cells. (Formazan colour is commonly taken as a measure of viable cells.)
The nature of data set [2]: Antiproliferative activity against human LNCaP-EnzR cells assessed as inhibition of cell proliferation incubated for 3 days by MTT assay. The settings on record: 72 h.

Take `CC(=O)Cc1nsc(NC(=O)/C=C/c2ccc(C(F)(F)F)cc2)n1`: half-maximal inhibition at Androgen receptor (IC50) required 16 µM.

For the molecule `CNC(=O)c1ccc(N2C(=S)N(c3ccc(C#N)c(C(F)(F)F)c3)C(=O)C2(C)C)cc1F` [ENZALUTAMIDE], the half-inhibitory concentration (IC50) – broadly, the concentration that gives 50% inhibition – in the data set with LNCaP was 15.8 µM; in data set [2], above 50 µM. The same molecule returned an IC50 at 3 days in data set [1] above 50 µM.
